Reference: patent US20230346831A1, “METHODS FOR TREATING […] USING LOW DOSE CARBON MONOXIDE” (priority 2020, published 2023)
“And” between values parts separate entries of the source, which are not always exact repeats. Equal entries are not always repeated.

Tested on: MCF7/TGL cells
Assay: metabolomic assay (polar metabolite profiling, mass spectrometry)
Assay type: cell-based, human
Procedure: Extraction and analysis were performed with the same parameters as the method disclosed in FIG. 7.
7 × 10^6 cells were seeded in 10-cm cell culture plates with DMEM containing 10% FBS, 0.2 mM L-glutamine and 1% penicillin/streptomycin. Additionally, MCF7/TGL/pQ was cultured in media containing 0.5 µgml^-1 puromycin and 25 mM HEPES. After 16 hours of incubation, metabolites were extracted from the cells using 80% methanol. The remaining steps were carried out by Weill Cornell Medicine Proteomics and Metabolomics Core Facility according to M. D. Goncalves et al., Proc Natl Acad Sci USA 115, E743-E752 (2018). All data analyses were done using MetaboAnalyst 4.0 (www.metaboanalyst.ca/).
To investigate whether 250 ppm CO mimics hypoxia, the HiF1α protein levels were examined in CO treated MCF7/TGL and MDA-MB-231/TGL cells. […] To determine whether 250 ppm CO affects metabolism, polar metabolites were profiled using two breast cancer cell lines, MCF7/TGL and MDA-MB-231/TGL (FIGS. 7-9).

[1] = MCF7/TGL cells, 250 ppm CO, 16 hours

[C-]#[O+] [CO, Carbon monoxide]
Peak Height Cytosine (HMDB00630, MCF7/TGL cells treated with CO, replicates CO 1-3): 153,235 and 158,066 and 214,404 | Peak Height L-Glutamine (HMDB00641, MCF7/TGL cells treated with CO, replicates CO 1-3): 2,010,884,000 and 2,067,120,000 and 2,186,859,000 | Peak Height D-Fructose (HMDB00660, MCF7/TGL cells treated with CO, replicates CO 1-3): 2,161,466 and 2,426,370 and 4,390,968 | Peak Height Indolelactic acid (HMDB00671, MCF7/TGL cells treated with CO, replicates CO 1-3): 168,415 and 166,030 and 323,966 | Peak Height Indoxyl sulfate (HMDB00682, MCF7/TGL cells treated with CO, replicates CO 1-3): 31,554 and 19,025 and 38,019 | Peak Height L-Kynurenine (HMDB00684, MCF7/TGL cells treated with CO, replicates CO 1-3): 186,534 and 218,684 and 386,445 | Peak Height L-Leucine (HMDB00687, MCF7/TGL cells treated with CO, replicates CO 1-3): 319,755,000 and 339,183,100 and 446,258,700 | Peak Height L-Methionine (HMDB00696, MCF7/TGL cells treated with CO, replicates CO 1-3): 110,122,300 and 114,069,500 and 202,567,100 | Peak Height Hexanoylcarnirine (HMDB00705, MCF7/TGL cells treated with CO, replicates CO 1-3): 309,788 and 384,626 and 554,943 | Peak Height Hippuric acid (HMDB00714, MCF7/TGL cells treated with CO, replicates CO 1-3): 41,839 and 33,037 and 50,895 | Peak Height Kynurenic acid (HMDB00715, MCF7/TGL cells treated with CO, replicates CO 1-3): 57,830 and 46,636 and 67,981 | Peak Height Malic acid (HMDB00744, MCF7/TGL cells treated with CO, replicates CO 1-3): 118,667,000 and 141,604,200 and 190,900,500 | Peak Height N-Acetyl-L-alanine (HMDB00766, MCF7/TGL cells treated with CO, replicates CO 1-3): 3,050,982 and 3,282,590 and 5,343,814 | Peak Height Phenyllactic acid (HMDB00779, MCF7/TGL cells treated with CO, replicates CO 1-3): 375,745 and 377,557 and 505,569 | Peak Height 3-Phosphoglyceric acid (HMDB00807, MCF7/TGL cells treated with CO, replicates CO 1-3): 830,372 and 1,313,918 and 2,225,910 | Peak Height N-Acetyl-L-aspartic acid (HMDB00812, MCF7/TGL cells treated with CO, replicates CO 1-3): 107,096,600 and 121,628,700 and 146,462,300 | Peak Height Phenylacetylglycine (HMDB00821, MCF7/TGL cells treated with CO, replicates CO 1-3): 1,455,001 and 1,300,695 and 2,222,377 | Peak Height Propionylcarnitine (HMDB00824, MCF7/TGL cells treated with CO, replicates CO 1-3): 88,247,270 and 88,089,220 and 114,107,300 | Peak Height Ureidosuccinic acid (HMDB00828, MCF7/TGL cells treated with CO, replicates CO 1-3): 967,259 and 2,115,336 and 2,977,458 | Peak Height L-Valine (HMDB00883, MCF7/TGL cells treated with CO, replicates CO 1-3): 166,887,800 and 164,029,200 and 219,042,800 | Peak Height Acetylcholine (HMDB00895, MCF7/TGL cells treated with CO, replicates CO 1-3): 79,843,420 and 75,982,720 and 87,382,500 | Peak Height NAD (HMDB00902, MCF7/TGL cells treated with CO, replicates CO 1-3): 6,156,942 and 7,187,370 and 12,756,100 | Peak Height Citrulline (HMDB00904, MCF7/TGL cells treated with CO, replicates CO 1-3): 9,044,262 and 10,234,370 and 14,264,050 | Peak Height L-Tryptophan (HMDB00929, MCF7/TGL cells treated with CO, replicates CO 1-3): 30,996,070 and 34,786,840 and 68,643,900 | Peak Height Uridine diphosphate glucuronic acid (HMDB00935, MCF7/TGL cells treated with CO, replicates CO 1-3): 726,138 and 548,546 and 770,082 | Peak Height S-Adenosylhomocysteine (HMDB00939, MCF7/TGL cells treated with CO, replicates CO 1-3): 56,652 and 145,088 and 413,677 | Peak Height Threonic acid (HMDB00943, MCF7/TGL cells treated with CO, replicates CO 1-3): 76,882,710 and 94,196,330 and 129,619,900 | Peak Height dGDP (HMDB00960, MCF7/TGL cells treated with CO, replicates CO 1-3): 686,954 and 539,654 and 784,042 | Peak Height Hypotaurine (HMDB00965, MCF7/TGL cells treated with CO, replicates CO 1-3): 4,796,295 and 5,519,371 and 5,943,089 | Peak Height Adenosine phosphosulfate (HMDB01003, MCF7/TGL cells treated with CO, replicates CO 1-3): 14,981 and 16,338 | Peak Height Deoxyribose 5-phosphate (HMDB01031, MCF7/TGL cells treated with CO, replicates CO 1-3): 19,019 and 34,976 and 30,540 | Peak Height S-Lactoylglutathione (HMDB01066, MCF7/TGL cells treated with CO, replicates CO 1-3): 397,298 and 293,636 and 484,692 | Peak Height D-Sedoheptulose 7-phosphate (HMDB01068, MCF7/TGL cells treated with CO, replicates CO 1-3): 151,546 and 165,071 and 234,010 | Peak Height D-Glyceraldehyde 3-phosphate (HMDB01112, MCF7/TGL cells treated with CO, replicates CO 1-3): 1,475,183 and 1,160,887 and 1,058,732 | Peak Height N-Acetylglutamic acid (HMDB01138, MCF7/TGL cells treated with CO, replicates CO 1-3): 567,078 and 897,146 and 1,371,040 | Peak Height 5′-Methylthioadenosine (HMDB01173, MCF7/TGL cells treated with CO, replicates CO 1-3): 269,714 and 419,042 and 1,274,477 | Peak Height S-Adenosylmethionine (HMDB01185, MCF7/TGL cells treated with CO, replicates CO 1-3): 9,310,209 and 12,590,700 and 17,427,170 | Peak Height Guanosine diphosphate (HMDB01201, MCF7/TGL cells treated with CO, replicates CO 1-3): 35,607 and 34,452 and 43,718 | Peak Height Allantoic acid (HMDB01209, MCF7/TGL cells treated with CO, replicates CO 1-3): 44,843 and 53,026 and 96,308 | Peak Height 5-Thymidylic acid (HMDB01227, MCF7/TGL cells treated with CO, replicates CO 1-3): 266,456 and 133,281 and 141,715 | Peak Height Glucosamine 6-phosphate (HMDB01254, MCF7/TGL cells treated with CO, replicates CO 1-3): 44,392 and 62,516 and 90,486 | Peak Height Guanosine triphosphate (HMDB01273, MCF7/TGL cells treated with CO, replicates CO 1-3): 84,003 and 60,453 and 112,154 | Peak Height N6,N6,N6-Trimethyl-L-lysine (HMDB01325, MCF7/TGL cells treated with CO, replicates CO 1-3): 4,594,085 and 5,317,512 and 7,697,279 | Peak Height ADP (HMDB01341, MCF7/TGL cells treated with CO, replicates CO 1-3): 902,793 and 705,422 and 1,082,377 | Peak Height Thymidine 5′-triphosphate (HMDB01342, MCF7/TGL cells treated with CO, replicates CO 1-3): 54,889 and 34,363 and 35,046 | Peak Height N-Acetyl-glucosamine 1-phosphate (HMDB01367, MCF7/TGL cells treated with CO, replicates CO 1-3): 464,872 and 467,412 and 595,300 | Peak Height Guanosine monophosphate (HMDB01397, MCF7/TGL cells treated with CO, replicates CO 1-3): 73,405 and 58,750 and 80,249 | Peak Height Glucose 6-phosphate (HMDB01401, MCF7/TGL cells treated with CO, replicates CO 1-3): 1,799,795 and 2,339,699 and 3,140,759 | Peak Height Niacinamide (HMDB01406, MCF7/TGL cells treated with CO, replicates CO 1-3): 1,738,434 and 1,604,153 and 3,615,850 | Peak Height Citicoline (HMDB01413, MCF7/TGL cells treated with CO, replicates CO 1-3): 1,054,917 and 1,269,775 and 2,126,892 | Peak Height NADH (HMDB01487, MCF7/TGL cells treated with CO, replicates CO 1-3): 81,979 and 73,214 and 61,204 | Peak Height Asymmetric dimethylarginine (HMDB01539, MCF7/TGL cells treated with CO, replicates CO 1-3): 2,485,123 and 2,893,325 and 4,095,202 | Peak Height CDP (HMDB01546, MCF7/TGL cells treated with CO, replicates CO 1-3): 49,666 and 36,830 and 44,004 | Peak Height D-Ribose 5-phosphate (HMDB01548, MCF7/TGL cells treated with CO, replicates CO 1-3): 523,976 and 578,358 and 695,562 | Peak Height CDP-Ethanolamine (HMDB01564, MCF7/TGL cells treated with CO, replicates CO 1-3): 229,328 and 262,826 and 313,255 | Peak Height Phosphorylcholine (HMDB01565, MCF7/TGL cells treated with CO, replicates CO 1-3): 826,434,500 and 950,902,100 and 1,062,045,000 | Peak Height Glucose 1-phosphate (HMDB01586, MCF7/TGL cells treated with CO, replicates CO 1-3): 194,892 and 220,042 and 348,617 | Peak Height 2-Hydroxycaproic acid (HMDB01624, MCF7/TGL cells treated with CO, replicates CO 1-3): 663,141 and 926,482 and 905,559 | Peak Height DL-O-Phosphoserine (HMDB01721, MCF7/TGL cells treated with CO, replicates CO 1-3): 256,439 and 305,155 and 440,561 | Peak Height 2-Ketohexanoic acid (HMDB01864, MCF7/TGL cells treated with CO, replicates CO 1-3): 10,109,740 and 13,290,500 and 25,544,760 | Peak Height Acetylcysteine (HMDB01890, MCF7/TGL cells treated with CO, replicates CO 1-3): 309,165 and 445,217 and 662,532 | Peak Height Methionine sulfoxide (HMDB02005, MCF7/TGL cells treated with CO, replicates CO 1-3): 1,119,307 and 1,490,306 and 2,521,401 | Peak Height Imidazolelactic acid (HMDB02320, MCF7/TGL cells treated with CO, replicates CO 1-3): 128,890 and 215,532 and 355,864 | Peak Height Methylimidazoleacetic acid (HMDB02820, MCF7/TGL cells treated with CO, replicates CO 1-3): 2,032,579 and 2,307,084 and 4,227,106 | Peak Height Erythritol (HMDB02994, MCF7/TGL cells treated with CO, replicates CO 1-3): 124,085 and 149,580 and 273,411 | Peak Height Oxidized glutathione (HMDB03337, MCF7/TGL cells treated with CO, replicates CO 1-3): 1,351,310 and 1,735,245 and 4,066,758 | Peak Height L-Dihydroorotic acid (HMDB03349, MCF7/TGL cells treated with CO, replicates CO 1-3): 52,713 and 82,695 and 121,047 | Peak Height GDP-glucose (HMDB03351, MCF7/TGL cells treated with CO, replicates CO 1-3): 30,304 and 39,328 and 68,617 | Peak Height N-Acetylornithine (HMDB03357, MCF7/TGL cells treated with CO, replicates CO 1-3): 364,451 and 403,207 and 622,448 | Peak Height 4-Acetamidobutanoic acid (HMDB03681, MCF7/TGL cells treated with CO, replicates CO 1-3): 550,530 and 718,720 and 878,912 | Peak Height N-Acetylasparagine (HMDB06028, MCF7/TGL cells treated with CO, replicates CO 1-3): 279,146 and 204,547 and 192,934 | Peak Height N-Acetylglutamine (HMDB06029, MCF7/TGL cells treated with CO, replicates CO 1-3): 233,588 and 221,551 and 457,769 | Peak Height ADP-glucose (HMDB06557, MCF7/TGL cells treated with CO, replicates CO 1-3): 51,484 and 47,964 and 81,136 | Peak Height 4-Hydroxybenzaldehyde (HMDB11718, MCF7/TGL cells treated with CO, replicates CO 1-3): 1,638,500 and 1,711,975 and 2,780,422 | Peak Height N-Acetyl-L-methionine (HMDB11745, MCF7/TGL cells treated with CO, replicates CO 1-3): 1,517,454 and 1,648,819 and 2,302,821 | Peak Height D-2,3-Dihydroxypropanoic acid (HMDB31818, MCF7/TGL cells treated with CO, replicates CO 1-3): 2,390,333 and 3,141,171 and 4,932,187 | Peak Height 3-hydroxyhexadecanoic acid (HMDB61658, MCF7/TGL cells treated with CO, replicates CO 1-3): 11,142 and 13,344 and 11,314 | citric acid and phosphoenolpyruvic acid [1]: did not provide statistically significant results | nine common metabolites (fumaric acid, L-Dihydroorotic acid, D-2-Hydroxyglutaric, malic acid, NAD, GDP-glucose, pyruvic acid, inosinic acid, oxoglutaric acid) [1]: significantly downregulated | pyruvic acid, oxoglutaric acid, malic acid, and fumaric acid (TCA intermediates) [1]: significantly downregulated | succinic acid [1]: significantly downregulated | abundance of metabolites tested (metabolomics profiling) (MCF7/TGL/pQ cells, 250 ppm carbon monoxide for 16 hours): reduced the abundance of the majority of metabolites tested
